According to patent US10428080B2, “TBK/IKK inhibitor compounds and uses thereof” (Merck Patent GmbH, priority 2015, dated 2019):
pIC50: −log10 of the molar value. Where a name gives a salt, the structure may show the parent alone.

Legend:
TBK1 = biological target: T1, TBK1 (Homo sapiens, UniProt Q9UHD2); experiment: TBK Biochemical Assay; settings: read-out: TBK1 IC50
T1 sequence (Q9UHD2 1-729): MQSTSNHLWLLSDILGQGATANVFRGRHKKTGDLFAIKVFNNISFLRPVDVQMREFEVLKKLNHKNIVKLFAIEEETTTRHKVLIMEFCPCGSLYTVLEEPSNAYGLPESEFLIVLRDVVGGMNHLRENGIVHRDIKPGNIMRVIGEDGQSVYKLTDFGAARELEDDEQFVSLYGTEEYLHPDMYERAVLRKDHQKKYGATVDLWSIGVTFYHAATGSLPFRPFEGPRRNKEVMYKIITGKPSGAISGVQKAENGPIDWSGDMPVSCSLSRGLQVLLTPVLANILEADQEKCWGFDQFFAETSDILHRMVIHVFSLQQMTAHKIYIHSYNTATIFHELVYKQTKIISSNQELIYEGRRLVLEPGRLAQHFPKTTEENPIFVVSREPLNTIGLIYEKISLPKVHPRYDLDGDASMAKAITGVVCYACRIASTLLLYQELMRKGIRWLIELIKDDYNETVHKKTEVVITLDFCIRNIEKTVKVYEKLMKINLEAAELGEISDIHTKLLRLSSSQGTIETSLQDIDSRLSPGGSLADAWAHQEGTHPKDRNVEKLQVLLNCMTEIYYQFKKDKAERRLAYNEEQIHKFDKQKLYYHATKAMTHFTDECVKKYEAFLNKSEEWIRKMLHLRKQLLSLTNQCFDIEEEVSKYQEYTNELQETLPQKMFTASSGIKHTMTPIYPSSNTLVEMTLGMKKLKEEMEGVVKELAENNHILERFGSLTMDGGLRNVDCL
Outline: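 TBK1 enzyme and substrate incubated with compounds (10-point 1:4 dilution, top 30 uM final, 1% DMSO) for 90 min at 25° C, then stopped. Substrate/product peaks read by microfluidic mobility-shift (Caliper LabChip); 10 uM staurosporine as full-inhibition control.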

IKKε = biological target: T2, IKKε (Homo sapiens, UniProt Q14164); experiment: IKKe Biochemical Assay; settings: read-out: IKKε IC50
T2 sequence (Q14164 1-716): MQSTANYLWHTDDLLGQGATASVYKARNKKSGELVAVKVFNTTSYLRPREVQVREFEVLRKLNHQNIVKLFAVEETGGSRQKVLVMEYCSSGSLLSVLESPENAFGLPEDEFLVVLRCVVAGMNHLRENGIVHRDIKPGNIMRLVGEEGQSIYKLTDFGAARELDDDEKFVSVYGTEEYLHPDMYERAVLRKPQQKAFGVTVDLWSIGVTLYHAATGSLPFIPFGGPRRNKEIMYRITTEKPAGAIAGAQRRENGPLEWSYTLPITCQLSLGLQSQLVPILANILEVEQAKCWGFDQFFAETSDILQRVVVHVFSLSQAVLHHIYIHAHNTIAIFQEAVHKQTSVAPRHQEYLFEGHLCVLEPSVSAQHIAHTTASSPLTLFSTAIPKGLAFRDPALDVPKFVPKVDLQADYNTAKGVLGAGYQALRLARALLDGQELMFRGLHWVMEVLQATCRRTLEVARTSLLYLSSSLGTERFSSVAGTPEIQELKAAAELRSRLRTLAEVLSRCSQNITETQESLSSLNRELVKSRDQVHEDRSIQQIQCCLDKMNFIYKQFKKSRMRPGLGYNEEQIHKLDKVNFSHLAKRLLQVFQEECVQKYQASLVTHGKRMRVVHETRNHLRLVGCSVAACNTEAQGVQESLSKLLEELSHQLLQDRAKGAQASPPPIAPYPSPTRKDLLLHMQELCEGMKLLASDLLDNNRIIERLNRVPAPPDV
Outline: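 Recombinant IKKε and substrate were incubated with compound (10-point 1:4 series, top 30 uM final, 1% DMSO) for 90 min at 25° C, then stopped. Substrate-to-product conversion was read by LabChip microfluidic mobility shift; 10 uM staurosporine served as full-inhibition wells.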

[1] = test system: phosphorylation of the IRF-3 protein in MDA-MB-468 cells; experiment: pIRF3 immunocytochemistry cell based assay; settings: Homo sapiens; MDA-MB-468 cells, Poly(I:C) stimulation; read-out: pIRF3 IC50
Outline: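 MDA-MB-468 cells got compounds (10-point, 3-fold from 10 uM) for 1 h at 37 °C, then 10 ug/ml Poly(I:C) for 2 h. Fixed, permeabilized cells were immunostained for pIRF3 with AlexaFluor488 and counterstained with PI. % phosphorylation was read by laser scanning cytometry, and IC50 curves were fitted.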

Compound	pIC50 (TBK1)	pIC50 (IKKε)	pIC50 [1]
COc1cc(C(=O)N(C)C)cnc1-c1cc2ncc(F)c(-c3ccc(NC4CCOCC4)c(C#N)n3)c2o1 [Compound 352, 6-(7-[6-cyano-5-[(oxan-4-yl)amino]pyridin-2-yl]-6-fluorofuro[3,2-b]pyridin-2-yl)-5-methoxy-N,N-dimethylpyridine-3-carboxamide]	6.00 to 7.00	5.30 to 6.00	5.30 to 6.00
COc1cc(C(=O)N2CCC3(CC2)NCNC3=O)ccc1-c1cc2nccc(-c3ccc(NC4CCOCC4)c(C#N)c3)c2o1 [Compound 34, 5-{2-[2-Methoxy-4-(4-oxo-1,3,8-triaza-spiro[4.5]decane-8-carbonyl)-phenyl]-furo[3,2-b]pyridin-7-yl}-2-(tetrahydro-pyran-4-ylamino)-benzonitrile]	> 7.00	> 7.00	6.00 to 7.00
COc1cc(-c2cc3nccc(-c4ccc(NC5CCOCC5)c(C#N)c4)c3o2)cnc1C(=O)N(C)C [Compound 394, 5-(7-[3-cyano-4-[(oxan-4-yl)amino]phenyl]furo[3,2-b]pyridin-2-yl)-3-methoxy-N,N-dimethylpyridine-2-carboxamide]	6.00 to 7.00	6.00 to 7.00	5.30 to 6.00
COc1cc(C(=O)N(C)C)ccc1-c1cc2nccc(-c3ccc(OC4CCNCC4(F)F)c(C#N)c3)c2o1 (stereo not drawn) [Compound 71, 4-{7-[3-Cyano-4-(3,3-difluoro-piperidin-4-yloxy)-phenyl]-furo[3,2-b]pyridin-2-yl}-3-methoxy-N,N-dimethyl-benzamide hydrochloride]	> 7.00	> 7.00	> 7.00
COc1cc(C(=O)N(C)C)ccc1-c1cc2nccc(-c3ccc(OC4CCCOC4)c(C#N)c3)c2o1 (stereo not drawn) [Compound 105, 4-{7-[3-Cyano-4-(tetrahydro-pyran-3-yloxy)-phenyl]-furo[3,2-b]pyridin-2-yl}-3-methoxy-N,N-dimethyl-benzamide]	> 7.00	> 7.00	6.00 to 7.00
COc1cc(C(=O)NC2CNCC(F)(F)C2)ccc1-c1cc2nccc(-c3ccc(OC4CCOCC4)c(C#N)c3)c2o1 (stereo not drawn) [Compound 98, 4-{7-[3-Cyano-4-(tetrahydro-pyran-4-yloxy)-phenyl]-furo[3,2-b]pyridin-2-yl}-N-(5,5-difluoro-piperidin-3-yl)-3-methoxy-benzamide hydrochloride]	> 7.00	> 7.00	6.00 to 7.00
CN(C)C(=O)c1cccc(-c2cc3nccc(-c4ccc(OC5CCOCC5)c(C#N)c4)c3o2)c1 [Compound 123]	> 7.00	> 7.00	5.30 to 6.00
COc1cc(C(=O)N(C)C)ccc1-c1cc2nccc(-c3cnc(OC4CCOCC4)c(C#N)c3)c2o1 [Compound 109, 4-{7-[5-Cyano-6-(tetrahydro-pyran-4-yloxy)-pyridin-3-yl]-furo[3,2-b]pyridin-2-yl}-3-methoxy-N,N-dimethyl-benzamide]	> 7.00	> 7.00	6.00 to 7.00

Further lines, results first:

pIC50 (TBK1)	pIC50 (IKKε)	pIC50 [1]	Compound
> 7.00	> 7.00	> 7.00	COc1cc(C(=O)N2CC[C@@H](N(C)C)C2)cnc1-c1cc2nccc(-c3ccc(N4CC[C@@H](F)C4)c(C#N)c3)c2o1 [Compound 456, 5-[2-(5-[[(3R)-3-(dimethylamino)pyrrolidin-1-yl]carbonyl]-3-methoxypyridin-2-yl) (R)-furo[3,2-b]pyridin-7-yl]-2-(3-fluoropyrrolidin-1-yl)benzonitrile]
> 7.00	> 7.00	> 7.00	COc1cc(C(=O)N2CC[C@@H](N(C)C)C2)ncc1-c1cc2nccc(-c3ccc(N4CCC(F)C4)c(C#N)c3)c2o1 (stereo partly drawn) [Compound 457, 5-[2-(6-[[(3R)-3-(dimethylamino)pyrrolidin-1-yl]carbonyl]-4-methoxypyridin-3-yl)furo[3,2-b]pyridin-7-yl]-2-(3-fluoropyrrolidin-1-yl)benzonitrile]
> 7.00	> 7.00	6.00 to 7.00	COc1cc(C(N)=O)ccc1-c1cc2nccc(-c3ccc(OC4CCOCC4)c(C#N)c3)c2o1 [Compound 40, 4-{7-[3-Cyano-4-(tetrahydro-pyran-4-yloxy)-phenyl]-furo[3,2-b]pyridin-2-yl}-3-methoxy-benzamide]
> 7.00	> 7.00	6.00 to 7.00	COc1cc(C(=O)N2CC[C@H](N(C)C)C2)ccc1-c1cc2nccc(-c3ccc(N4CC[C@H](F)C4)c(C#N)c3)c2o1 [Compound 47, 5-{2-[4-((S)-3-Dimethylamino-pyrrolidine-1-carbonyl)-2-methoxy-phenyl]-furo[3,2-b]pyridin-7-yl}-2-((S)-3-fluoro-pyrrolidin-1-yl)-benzonitrile]
> 7.00	> 7.00	5.30 to 6.00	N#Cc1cc(-c2ccnc3cc(-c4ccc(C(=O)N5CC[C@H](F)C5)cc4)oc23)ccc1OC1CCOCC1 [Compound 136, 5-{2-[4-((S)-3-Fluoro-pyrrolidine-1-carbonyl)-phenyl]-furo[3,2-b]pyridin-7-yl}-2-(tetrahydro-pyran-4-yloxy)-benzonitrile]
> 7.00	> 7.00	6.00 to 7.00	COc1cc(C(=O)N2CC3(CCCN3)C2)ccc1-c1cc2nccc(-c3ccc(OC4CCOCC4)c(C#N)c3)c2o1 [Compound 29, 5-{2-[4-(2,5-Diaza-spiro[3.4]octane-2-carbonyl)-2-methoxy-phenyl]-furo[3,2-b]pyridin-7-yl}-2-(tetrahydro-pyran-4-yloxy)-benzonitrile hydrochloride]
> 7.00	> 7.00	6.00 to 7.00	COc1cc(C(=O)NC2(CN(C)C)CCC2)ccc1-c1cc2nccc(-c3ccc(OC4CCOCC4)c(C#N)c3)c2o1 [Compound 368, 4-[7-[3-cyano-4-(oxan-4-yloxy)phenyl]furo[3,2-b]pyridin-2-yl]-N-[1-[(dimethylamino)methyl]cyclobutyl]-3-methoxybenzamide]
> 7.00	> 7.00	> 7.00	COc1cc(C(=O)N2CCC(CO)CC2)ccc1-c1cc2nccc(-c3ccc(OC4CCOCC4)c(C#N)c3)c2o1 [Compound 5, 5-{2-[4-(4-Hydroxymethyl-piperidine-1-carbonyl)-2-methoxy-phenyl]-furo[3,2-b]pyridin-7-yl}-2-(tetrahydro-pyran-4-yloxy)-benzonitrile]
> 7.00	> 7.00	6.00 to 7.00	COc1cc(C(=O)N[C@H]2C[C@H](CO)N(C)C2)ccc1-c1cc2nccc(-c3ccc(OC4CCOCC4)c(C#N)c3)c2o1 (stereo in doubt) [Compound 350, 4-[7-[3-cyano-4-(oxan-4-yloxy)phenyl]furo[3,2-b]pyridin-2-yl]-N-[(3S,5R)-5-(hydroxymethyl)-1-methylpyrrolidin-3-yl]-3-methoxybenzamide]
> 7.00	> 7.00	6.00 to 7.00	COc1cc(C(=O)N(C)C)ncc1-c1cc2nccc(-c3ccc(NC4C5COCC54)c(C#N)c3)c2o1 (stereo not drawn) [Compound 437, 5-[7-[3-cyano-4-([3-oxabicyclo[3.1.0]hexan-6-yl]amino)phenyl]furo[3,2-b]pyridin-2-yl]-4-methoxy-N,N-dimethylpyridine-2-carboxamide]
